A melting point compilation (Tetko et al.; mined from patent text by program, amines drawn as free bases though some values may be those of a salt)

First: O=C1c2ccc(Cl)cc2CC1(F)Br (stereo not drawn)
Second: O=C1Cc2cc(Br)ccc2O1
The melting point of the first is lower: 104 to 105 °C for the first, 147 to 148 °C for the second.

First: CN(CC(=O)O)S(=O)(=O)c1ccc(-c2ccc(NC(=O)c3cc4ccccc4o3)cc2)cc1
Second: CCOC(=O)c1cc(C)cc(-c2ccc(NC(=O)OCc3ccccc3)cc2)n1
The melting point of the first is higher: 226 to 228 °C for the first, 184 to 185 °C for the second.

First: C[C@H]1CCCN(C(=O)[C@H]2Cc3cc(N4CCCCC4)ccc3N2c2cccnn2)C1
Second: CCOC(=O)C1=NN(c2ccc(Cl)cc2)C2(N3CCCC3)CCCC12 (stereo not drawn)
The melting point of the first is higher: 226 to 228 °C for the first, 95 to 96 °C for the second.

First: O=C1CCC(CCN2CC(N3CCOCC3)C2)(c2ccc(Cl)c(Cl)c2)CN1Cc1ccc(-c2ccccc2)cc1 (stereo not drawn)
Second: CCOC(=O)N1C(=O)N(C(=O)OCc2ccccc2)C2(C1=O)C(=O)N(Cc1ccc(Cl)c(Cl)c1)c1ccccc12 (stereo not drawn)
The melting point of the first is lower: 72 to 82 °C for the first, 128 to 131 °C for the second.

First: CCOC(=O)Nc1cc2c3ccccc3n(Cc3ccccc3)c2cn1
Second: OC(CCn1cccn1)c1ccc(OCc2ccccc2)cc1 (stereo not drawn)
The melting point of the first is higher: 217 to 218 °C for the first, 80 to 85 °C for the second.

First: CCN(CC)C(=O)n1cc(F)c(S(=O)(=O)c2c(C)cc(C)cc2C)n1
Second: COc1cc(OC)c(-c2nncn2CC(C)C)cc1C=CC(=O)c1ccc(S(N)(=O)=O)cc1
The melting point of the first is lower: 109 to 111 °C for the first, greater than 240 °C for the second.

First: CCN1c2ncccc2C(=O)N(C)c2ccc(-c3cnn(C(C)=O)c3)nc21
Second: CC(C)(O)c1cnn2c(-c3cccc(-c4ccccc4C#N)c3)cnc2n1
The melting point of the first is higher: 186 to 188 °C for the first, 166 °C for the second.

First: Cc1noc(NS(=O)(=O)C23CSc4cccc(c42)OCO3)c1C (stereo not drawn)
Second: Cc1noc(NC(=O)N2CCN(c3ccnc(-c4ccc(F)cc4F)n3)CC2)c1C
The melting point of the first is lower: 135 to 137 °C for the first, 207 to 208 °C for the second.

First: CCCCCN1C(=O)C2CC2(c2ccc(N)cc2)C1=O (stereo not drawn)
Second: CCCCC(Cc1cccnc1)(C(=O)O)S(=O)(=O)c1ccc(OC)cc1 (stereo not drawn)
The melting point of the first is higher: 113 to 115 °C for the first, 65 °C for the second.

Compared with `COc1ccc(C(=O)NCc2ccc(NC3=NCCN3)cc2)cc1`, `COc1ccc(C[C@@H]2CCc3ncc(C)cc3C2)cc1` is lower in melting point: 160 to 161 °C for the first, 46 to 48 °C for the second.

First: CN1CC=C(c2c[nH]c3ccc(N)cc23)CC1
Second: CCn1cc(C(=O)O)c(=O)c2cc(F)c(N3CCNC(c4c[nH]c5ccccc45)C3)cc21 (stereo not drawn)
The melting point of the first is lower: 200 to 203 °C for the first, 230 °C for the second.

Compared with `CN(C)CC1CCCN(c2cc3ccccc3c(=O)[nH]2)C1` (stereo not drawn), `CCCN(CCC)CC1CCCN(CCNC(=O)N2c3ccccc3NC(=O)c3c2ccn3C)C1` (stereo not drawn) is higher in melting point: 141 to 143 °C for the first, 153 to 155 °C for the second.

Compared with `CNc1c([N+](=O)[O-])ccc2c1OC(COS(=O)(=O)c1ccc(C)cc1)CO2` (stereo not drawn), `CCc1nc2c(C#N)cccc2n1-c1ccc(CCNC(=O)NS(=O)(=O)c2ccc(C)cc2)cc1` is lower in melting point: 149 to 151 °C for the first, 95 to 103 °C for the second.

First: c1ccc(C(c2ccccc2)N2CCN(CCOc3ccccc3-c3nc4ccccc4s3)CC2)cc1
Second: CCC(=Cc1cccnc1)C(=O)NCCCCN1CCN(C(c2ccccc2)c2ccccc2)CC1
The melting point of the first is lower: 67 to 72 °C for the first, 137 to 141 °C for the second.

First: O=C(Nc1cc(OC2CCCC2)c(Cl)cc1F)C1=C(C(=O)NC2CCCCC2)CCCC1
Second: CC(C)(C)c1cc(CCc2ccccc2NC(=O)NC2CCCCCC2)cc(C(C)(C)C)c1O
The melting point of the first is higher: 209 to 211 °C for the first, 177 to 178 °C for the second.

First: C#CCCCOc1c(C)cc(C(N)=O)cc1C
Second: CCCc1c(OCc2cccc(C(=O)O)c2)ccc(C(C)=O)c1O
The melting point of the first is lower: 81 to 84 °C for the first, 216 to 220 °C for the second.

First: O=C1CN(Cc2cnc(-c3ccc(C(CC4CCOCC4)c4ccc(S(=O)(=O)C5CC5)cc4)[nH]3)s2)C(=O)N1 (stereo not drawn)
Second: CN1CCN(c2cccc(Nc3nc4c(-c5ccc(S(C)(=O)=O)cc5)cccn4n3)c2)C(=O)C1
The melting point of the first is lower: 184 to 185 °C for the first, 234 to 236 °C for the second.

First: COc1ccc(OCC(O)CNC(C)(C)C)c(C)c1C (stereo not drawn)
Second: CCCc1c(OCC(O)COc2cccc(N)c2C#N)ccc(C(C)=O)c1O (stereo not drawn)
The melting point of the first is lower: 73 to 75 °C for the first, 123 to 125 °C for the second.

`Cc1c(-c2cc(Cl)cc(Cl)c2)ccc2nc(N)nc(N)c12` and `CNC1Oc2cc(Cl)cc(-c3cc(F)ccc3F)c2O1` (stereo not drawn) cannot be ordered by melting point: greater than 250 °C for the first, greater than 250 °C for the second.

First: CC(C)(C)OC(=O)Nc1ccc(F)cc1C(F)(F)F
Second: CC(O)(c1nc2cc([N+](=O)[O-])ccc2s1)C(F)(F)F (stereo not drawn)
The melting point of the first is lower: 61 to 62 °C for the first, 66 to 69 °C for the second.

First: CCOC(=O)/C=C/c1cc(OCc2cn(-c3ccc(C(F)(F)F)cn3)nc2C)nn1C
Second: CCOC(=O)C(C)(C)OCc1cc2cc(C(F)(F)F)ccc2n1S(=O)(=O)c1ccccc1
The melting point of the first is higher: 173 to 174 °C for the first, 62 to 64 °C for the second.

First: CC1CCOCC1C(C#N)=NO (stereo not drawn)
Second: C[C@H]1CCCC(C)(C)[C@@H]1C(=O)c1c(F)c(F)c(F)c(F)c1F
The melting point of the first is higher: 94 to 96 °C for the first, 35.2 to 38 °C for the second.

First: CCOC(=O)[C@H](Cc1cc(OC)c(OC)cc1I)NC=O
Second: CCC(=O)c1cc(Cl)c(OC)cc1OC
The melting point of the first is higher: 151 to 152 °C for the first, 115 °C for the second.

First: O=[N+]([O-])C=C(NCCCCc1nc[nH]c1Br)NCCCCc1nc[nH]c1Br
Second: COC(=O)NCOC(=O)N=CNc1c(Cc2cccnc2)c[nH]c1C(=O)OC
The melting point of the first is higher: 198 to 200 °C for the first, 160 to 162 °C for the second.

Compared with `NC(=O)CNC(=O)c1cccc(-c2ccc(Cl)c3cc(Cc4ccc(F)c(F)c4)sc23)c1`, `O=C(O)COc1ccccc1-c1ccc(Cl)c(C(=O)NCC23CC4CC(CC(C4)C2)C3)c1` is higher in melting point: 188 to 189 °C for the first, 208 to 210 °C for the second.

Compared with `CCC(O)c1cc(-c2ccccc2)no1` (stereo not drawn), `COc1ccc(C(=O)Nc2cccnc2)c2c1oc1ccccc12` is higher in melting point: 101 to 102 °C for the first, 226 °C for the second.

First: O=C(O)c1cccc(N2C(=O)c3cccc([N+](=O)[O-])c3C2=O)c1
Second: O=[N+]([O-])c1cc(N2CCNCC2)ccc1S(=O)(=O)c1ccccc1
The melting point of the first is higher: 354 to 355 °C for the first, 180 to 182 °C for the second.

First: C=CC(=O)OC1(C)CCCC2C3C=CC(C3)C21 (stereo not drawn)
Second: CCC(=NOCC=Cc1ccc(Br)cc1)C1=C(O)CC(C2CCCSC2)CC1=O (stereo not drawn)
The melting point of the first is lower: 41 to 42 °C for the first, 97 to 99 °C for the second.

First: CCOc1ccnc(F)c1N
Second: N#Cc1cnc2cnc(F)cc2c1Oc1ccc(Cl)cc1F
The melting point of the first is lower: 76 to 77 °C for the first, 186 to 188 °C for the second.

First: CCN1CCN([C@@H]2c3cc(C#N)ccc3OC(C)(C)[C@H]2O)C1=NC#N (relative stereo)
Second: C=CCn1c(N)nc(N2CCc3ccccc3CC2)c(C#N)c1=O
The melting point of the first is higher: 231 to 233 °C for the first, 181 to 182 °C for the second.

Compared with `COc1ccc(OC)c2cc3c(cc12)C1OC3C2=C1CCC(C(C)=O)C2` (stereo not drawn), `COC(=O)C1=CCCN(C2CCc3ccc(OC)cc3C2)C1` (stereo not drawn) is lower in melting point: 167 to 168 °C for the first, 65 to 66 °C for the second.

Compared with `CC1=C(/C=C/S(=O)(=O)NC(C)C)C(c2cccc([N+](=O)[O-])c2)C(C(=O)OCC(F)(F)F)=C(C)N1` (stereo not drawn), `CNc1c(OCCN(Cc2ccccc2)C(=O)OC(C)(C)C)cccc1[N+](=O)[O-]` is lower in melting point: 180 to 182 °C for the first, 91 to 93 °C for the second.

First: Clc1ccc2c(c1)NCc1ccccc1S2
Second: c1ccc2c(c1)CCc1ccccc1C21CO1
The melting point of the first is higher: 125 to 127 °C for the first, 79 to 80 °C for the second.

First: O=Cc1cccc2ccc(F)cc12
Second: CN(CCO)C(=O)c1cc2ccccc2[nH]1
The melting point of the first is lower: 95 to 96 °C for the first, 141 to 142 °C for the second.

First: CCOCc1cnc2c(NC(=O)c3c(Cl)cccc3Cl)cccc2c1N1CCN(C)C1=O
Second: Cc1c(-c2ccccc2)oc2c(C(=O)NCCCN3CCN(c4ccccc4OC(F)(F)F)CC3)cccc2c1=O
The melting point of the first is higher: 173 to 177 °C for the first, 103 to 112 °C for the second.

Compared with `N#CC1(C(O)(Cn2cncn2)c2ccccc2)CC1` (stereo not drawn), `Nc1nc2ccccc2c2c1ncn2CCO` is higher in melting point: 103 to 105 °C for the first, 260 to 262 °C for the second.

Compared with `CC(C)(C)CC(=O)Nc1ccc2oc3c(c2c1)CCC3`, `CC(=O)Nc1ccc(S(=O)(=O)Nc2nnc(C(C)(C)C)s2)cc1` is lower in melting point: 196 to 197 °C for the first, 137 to 138 °C for the second.

First: CC(C)(C)c1ccc(S(=O)(=O)Nc2nc(-c3ncccn3)nc(Cl)c2-c2cccs2)cc1
Second: COC(=O)c1ccccc1S(=O)(=O)Nn1cnn(-c2nc(OC)cc(OC)n2)c1=O
The melting point of the first is lower: 130 to 132 °C for the first, 192 °C for the second.

First: CC(C)(C)[Si](C)(C)Oc1ccc(NC(=O)CN2CCC(O)(Cc3ccccc3)CC2)cc1
Second: CON1CCC2(CC1)NC(=O)C(c1c(C)cc(C)cc1C)=C2OCc1ccccc1
The melting point of the first is lower: 105 to 108 °C for the first, 184 to 186 °C for the second.

Compared with `COc1cc(Nc2c(C#N)cnc3cc(Br)c(OC)cc23)c(Cl)cc1Cl`, `C=CCOC(=O)N1CCC[C@@H](OC)[C@@H]1CC(=O)Cn1cnc2cc(Cl)c(Oc3ccc(Cl)cc3)cc2c1=O` (relative stereo) is lower in melting point: greater than 250 °C for the first, 138 to 141 °C for the second.

First: COC(=O)[C@H](Cc1c(Br)n(Cc2ccccc2)c2cc(Br)c(OC)c(Br)c12)NC(C)=O
Second: CCNC(=O)N=C(NC(=O)Nc1ccccc1C)SC
The melting point of the first is higher: 226 to 227 °C for the first, 152 to 153 °C for the second.

First: CSc1ccc(C(CC(F)(F)F)=NO)cc1
Second: CCc1c(C(C)C)nc(C(C)C)c(CO)c1-c1ccc(F)cc1
The melting point of the first is lower: 106 to 107 °C for the first, 126 to 129 °C for the second.

Compared with `O=C(O)c1cc2c3c(ccc2[nH]1)OC[C@H](CO)O3`, `Cc1csc2nc(-n3cccn3)nc(NCc3ccc4c(c3)OCO4)c12` is lower in melting point: 216 to 217 °C for the first, 210 °C for the second.

First: Nc1nc(C(Br)Br)nc(C(Br)Br)n1
Second: CC(C)c1cc(-c2ccc(F)c3ccccc23)nc(Nc2ccccc2)n1
The melting point of the first is higher: 171 to 173 °C for the first, 85.7 to 86.3 °C for the second.

First: CC(C)Oc1ccc(C2CCc3cccc(C(=O)O)c3N2)cc1 (stereo not drawn)
Second: O=C(c1ccccc1)c1ccc(OCc2cccnc2)cc1O
The melting point of the first is higher: 166 to 167 °C for the first, 88 to 90 °C for the second.

First: C=CCN1CCN(c2cc(-c3ccccc3)c3ccc(=O)ccn23)CC1
Second: CC1(C)C(=O)C(C)(C)c2cc(C(O)CN3CCN(c4nsc5ccccc45)CC3)ccc21 (stereo not drawn)
The melting point of the first is lower: 125 °C for the first, 189 to 191 °C for the second.

First: CCc1cc(N(C)Cc2ccc3oc(-c4ccccc4C#N)c(Br)c3c2)n2nccc2n1
Second: Clc1ccc2c(c1)N=C(N1CCN[C@@H](Cc3ccccc3)C1)c1ccccc1N2
The melting point of the first is higher: 130 to 136 °C for the first, 79 to 92 °C for the second.

First: COc1ccc([N+](=O)[O-])cc1N1CCNCC1
Second: COc1ccc2c(c1)SC(CCBr)C(=O)N2 (stereo not drawn)
The melting point of the first is lower: 84 to 87 °C for the first, 142 to 143 °C for the second.

First: O=C(Nc1cnc2c(c1)nc1n2CCC1O)c1cc2cc(C(F)(F)F)cnc2n1Cc1cccc(F)c1 (single isomer, unassigned; (-))
Second: CCCS(=S)c1cccc(OS(C)(=O)=O)n1 (stereo not drawn)
The melting point of the first is higher: 279 to 280 °C for the first, 51 to 53 °C for the second.
